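The compound was tested at five concentrations on cells cultured in 96-well plates, with a 48-hour exposure period. The concentration for 50% growth inhibition is given as GI50.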 Active and inactive are the calls of the source. Cut-off read from the data, not from the text of the source: active = GI50 up to about 1.1 µM and inactive = higher.
Key:
Test in all cases: inhibition of tumour cell growth, NCI panel, 48 h
RXF 393 = tested on: RXF 393
SW-620 = tested on: SW-620
OVCAR-4 = tested on: OVCAR-4
MOLT-4 = tested on: MOLT-4
SF-295 = tested on: SF-295
786-0 = tested on: 786-0
U-251 = tested on: U-251
COLO 205 = tested on: COLO 205
NCI-H226 = tested on: NCI-H226
HT-29 = tested on: HT-29
IGROV-1 = tested on: IGROV-1
UACC-257 = tested on: UACC-257
A549 = tested on: A549
HCT-116 = tested on: HCT-116
A498 = tested on: A498
MDA-MB-435 = tested on: MDA-MB-435
MCF7 = tested on: MCF7
SNB-19 = tested on: SNB-19
NCI/ADR-RES = tested on: NCI/ADR-RES

Measured: GI50

N#CC(NNC(=O)c1ccccc1O)c1ccc(O)cc1 (configuration not stated)
inactive: RXF 393 1.48 µM | SW-620 26.7 µM | OVCAR-4 13.1 µM | MOLT-4 4.17 µM | SF-295 4.38 µM | 786-0 8.02 µM | U-251 3.8 µM | COLO 205 29.2 µM | NCI-H226 3.21 µM | HT-29 28.1 µM | IGROV-1 3.96 µM | UACC-257 15.6 µM | A549 2.74 µM | HCT-116 3.33 µM

OCC1NCC(O)C(O)C1O (configuration not stated)
inactive: RXF 393 > 100 µM | SW-620 > 100 µM | OVCAR-4 > 100 µM | MOLT-4 > 100 µM | SF-295 > 10 µM | A498 > 100 µM | MDA-MB-435 > 100 µM | 786-0 > 100 µM | U-251 > 100 µM | COLO 205 > 100 µM | HT-29 > 100 µM | IGROV-1 > 100 µM | MCF7 > 100 µM | SNB-19 > 100 µM | UACC-257 > 100 µM | A549 > 100 µM | HCT-116 > 100 µM

O=C1CC2C(=O)c3ccccc3CC2c2ccccc21 (configuration not stated)
inactive: SW-620 49 µM | OVCAR-4 29.5 µM | MOLT-4 22.4 µM | SF-295 49.2 µM | A498 48.8 µM | MDA-MB-435 24.1 µM | 786-0 92.3 µM | U-251 57.4 µM | NCI-H226 36.6 µM | HT-29 44.9 µM | IGROV-1 27 µM | MCF7 37.2 µM | SNB-19 > 100 µM | UACC-257 24.8 µM | A549 36.3 µM | HCT-116 38.6 µM

NC1CC=C(COC(=O)C(O)(c2ccccc2)C2CC2)CC1 (configuration not stated)
inactive: RXF 393 > 100 µM | SW-620 > 100 µM | NCI/ADR-RES > 100 µM | MOLT-4 > 100 µM | SF-295 > 100 µM | 786-0 > 100 µM | U-251 > 100 µM | COLO 205 > 100 µM | NCI-H226 > 100 µM | HT-29 > 100 µM | IGROV-1 > 100 µM | MCF7 > 100 µM | SNB-19 > 100 µM | UACC-257 > 100 µM | A549 > 100 µM | HCT-116 > 100 µM

NC1=C(N2CCCCC2)C(=O)NC2=N/C(=C\c3ccco3)C(=O)N21
inactive: RXF 393 > 100 µM | SW-620 > 100 µM | OVCAR-4 > 100 µM | NCI/ADR-RES > 100 µM | MOLT-4 > 100 µM | SF-295 > 100 µM | A498 > 100 µM | MDA-MB-435 > 100 µM | 786-0 > 100 µM | U-251 > 100 µM | COLO 205 > 100 µM | NCI-H226 > 100 µM | HT-29 > 100 µM | IGROV-1 > 100 µM | SNB-19 > 100 µM | UACC-257 > 100 µM | A549 > 100 µM | HCT-116 > 100 µM

C[n+]1c(/C=C/c2ccc(/C=N/NC(=O)c3ccc(C(=O)N/N=C/c4ccc(/C=C/c5cn6ccccc6[n+]5C)cc4)cc3)cc2)cn2ccccc21
inactive: SW-620 > 100 µM | NCI/ADR-RES > 100 µM | MOLT-4 30.9 µM | SF-295 > 100 µM | MDA-MB-435 > 100 µM | 786-0 16.6 µM | U-251 > 100 µM | COLO 205 98.4 µM | HT-29 > 100 µM | IGROV-1 > 100 µM | MCF7 > 100 µM | SNB-19 > 100 µM | UACC-257 > 100 µM | A549 > 100 µM | HCT-116 > 100 µM

CCC(C)(O)c1cnc(CC(C)C)c(=O)n1O (configuration not stated)
inactive: RXF 393 > 100 µM | SW-620 37.1 µM | OVCAR-4 74.3 µM | MOLT-4 21.4 µM | SF-295 36.6 µM | A498 > 100 µM | MDA-MB-435 57.7 µM | 786-0 57.7 µM | U-251 47.9 µM | COLO 205 54.7 µM | HT-29 38.5 µM | IGROV-1 63 µM | SNB-19 55.8 µM | UACC-257 97.3 µM | A549 43.9 µM | HCT-116 44.9 µM
